Results reported in patent publication US10538497B2, “Compounds as indoleamine 2,3-dioxygenase inhibitors” (Merck Sharp & Dohme Corp., priority 2015, dated 2020).

Key:
IDO1 [1] = target: T1, IDO1 (Homo sapiens (Human), UniProt P14902); assay: IDO1 In Vivo Assay (hIDO1-CT26 murine model); design: species or system mouse; conditions: oral administration, 100 and 300 mg/kg
Experimental: hIDO1-CT26, a murine cell line generated in house to constitutively express the human IDO1 protein, was cultured in RPMI-1640+10% FBS+500 μM L-tryptophan in a standard cell incubator (37° C., 5% CO2). At 80% confluency, cells are rinsed in TrypLE, then incubated with TrypLE until fully detached (usually 1-5 min), resuspended in complete media, spun down (1000 rpm, 4° C., 5 min), and resuspended in phenol red-free RPMI-1640 before counting.
Two millions hIDO1-CT26 cells (20×10E6 cells/ml) in 50% phenol red-free RPMI-1640/50% Matrigel (growth factor reduced, GFR) are implanted subcutaneously in the right flank of anesthetized immunocompromised animals (CD-1 Nu/Nu, Charles River Labs). Ten days following implantation, tumors reach an average volume of 180 mm^3 at which point animals are randomized into treatment groups.
Animals are treated with IDO1 inhibitors by oral gavage (PO) every 12 h (BID dosing). Based on experimental design, animals will receive a minimum of 1 dose. At various times following the last dose, animals will be euthanized (CO2 asphyxiation), blood will be collected via cardiac puncture for plasma, and tumors will be resected. For plasma preparation, whole blood is transferred to plasma tube, and stored on ice prior to centrifugation. […]

IDO1 [2] = target: T1, IDO1; assay: IDO1 Cellular Assay in Hela Cells Stimulated with IFNγ; format: cell-based; conditions: Hela cells stimulated with IFNγ 100 ng/mL; read-out: IDO1 HELA Cell Assay, IC50
IDO1 [3] = target: T1, IDO1; assay: IDO1 Enzyme Assay; conditions: read-out: IDO1 Enzyme Assay, IC50; HIS-tagged recombinant IDO1, 40 nM

T1 sequence (P14902 whole entry): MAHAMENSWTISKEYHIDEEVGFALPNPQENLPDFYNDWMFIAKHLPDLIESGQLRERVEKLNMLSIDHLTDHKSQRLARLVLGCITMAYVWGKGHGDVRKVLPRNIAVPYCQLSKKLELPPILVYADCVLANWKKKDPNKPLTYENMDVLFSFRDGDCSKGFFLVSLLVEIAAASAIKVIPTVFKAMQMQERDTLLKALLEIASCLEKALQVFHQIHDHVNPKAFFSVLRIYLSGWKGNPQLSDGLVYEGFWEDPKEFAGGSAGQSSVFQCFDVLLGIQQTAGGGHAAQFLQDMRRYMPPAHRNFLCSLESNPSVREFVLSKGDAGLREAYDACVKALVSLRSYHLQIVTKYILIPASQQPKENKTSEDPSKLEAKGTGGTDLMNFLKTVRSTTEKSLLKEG

Row | SMILES | kynurenine levels in both plasma and tumor (IDO1 [1]) | IC50 (IDO1 [2]) [nM] | IC50 (IDO1 [3]) [nM]
1 | O=C(CSc1nonc1/C(=N/O)Nc1ccc(F)c(Br)c1)NC[C@@H](O)CO [Example 42, (R)-2-((4-(N-(3-bromo-4-fluorophenyl)-N′-hydroxycarbamimidoyl)-1,2,5-oxadiazol-3-yl)thio)-N-(2,3-dihydroxypropyl)acetamide] | dose-dependent reduction | 34.3 | 47.7
2 | NC(=O)NCCSc1nonc1/C(=N/O)Nc1ccc(F)c(Br)c1 [Example 46, N-(3-Bromo-4-fluorophenyl)-N′-hydroxy-4-((2-ureidoethyl)thio)-1,2,5-oxadiazole-3-carboximidamide] | dose-dependent reduction | 13.5 | 33.9
